From US4521422A, “Aryl and heteroaryl[7-(aryl and heteroaryl)pyrazolo[1,5-a]pyrimidin-3-yl]methanones” (American Cyanamid Company, priority 1984, dated 1985) come the findings set out here.

The assay has as its system Clonic Seizures Caused by Pentylenetetrazole in Rats. Briefly: Protection against clonic seizures caused by pentylenetetrazole in rats. It is filed as in vivo. To be noted: Rattus norvegicus; dose 25.0 mg/kg, oral or i.p.; pentylenetetrazole 23 mg/kg i.v. at 30 or 60 min; read-out: % of Rats Protected. How it is done: The anti-anxiety and anticonvulsant properties of the novel compounds of the present invention have been established in a test which indicates anxiolytic and antiepileptic activity by the measure of protection from convulsions resulting from the administration of pentylenetetrazole. Single or graded dose levels of the test compounds were administered orally or intraperitoneally in a 2% starch vehicle, containing 0.5% v/v polyethylene glycol and one drop of Polysorbate 80 to groups of at least 4 rats. At 30 or 60 minutes, the rats were treated intravenously with pentylenetetrazole at a dose of 23 mg/kg of body weight. This dose is estimated to cause clonic seizures in 99% of unprotected rats. It has been reported [R. T. Hill and D. H. Tedeschi, "Animal Testing and Screening Procedures in Evaluating Psychotropic Drugs" in "An Introduction to Psychopharmacology", Eds. R. R. Rech and K. E. Moore, Raven Press, New York, pp 237-288 (1971)] that there is a high degree of correlation between antagonism of pentylenetetrazole seizures in rats and anti-anxietyor anticonvulsant effects in higher warm-blooded animals.

Structures are written as SMILES.

With `O=C(c1cccc(Cl)c1)c1cnn2c(-c3ccncc3)ccnc12` [(3-chlorophenyl)[7-(4-pyridinyl)pyrazolo[1,5-a]pyrimidin-3-yl]methanone], the responders at 25 mg/kg was 50%.
Turning to `Cc1cc(-c2cccc(C(F)(F)F)c2)n2ncc(C(=O)c3ccc(Cl)cc3)c2n1` [(4-chlorophenyl)[5-methyl-7-[3-(trifluoromethyl)phenyl]pyrazolo[1,5-a]pyrimidin-3-yl]methanone], the responders at 25 mg/kg amounted to 25%.
The figure for `O=C(c1cccc(Cl)c1)c1cnn2c(-c3cccnc3)ccnc12` [(3-chlorophenyl)[7-(3-pyridinyl)pyrazolo[1,5-a]pyrimidin-3-yl]methanone] is 50%; for `O=C(c1ccccc1)c1cnn2c(-c3ccc[n+]([O-])c3)ccnc12` [Phenyl[7-(3-pyridinyl)pyrazolo[1,5-a]pyrimidin-3-yl]methanone, pyridine-1-oxide] it is 25%.
As for `N#Cc1ccc(-c2ccnc3c(C(=O)c4ccc(F)cc4)cnn23)cc1` [4-[3-(4-fluorobenzoyl)pyrazolo[1,5-a]pyrimidin-7-yl]benzonitrile], the responders at 25 mg/kg amounted to 50%.
The figure for `O=C(c1ccsc1)c1cnn2c(-c3ccncc3)ccnc12` [[7-(4-pyridinyl)pyrazolo[1,5-a]pyrimidin-3-yl]-3-thienylmethanone] is 50%.
The figure for `O=C(c1cc(Cl)ccc1Cl)c1cnn2c(-c3ccc(F)cc3)ccnc12` [(2,5-dichlorophenyl)[7-(4-fluorophenyl)pyrazolo[1,5-a]pyrimidin-3-yl]methanone] is 25%; for `O=C(c1cccc(Cl)c1)c1cnn2c(-c3ccc(F)cc3)ccnc12` [(3-chlorophenyl)[7-(4-fluorophenyl)pyrazolo[1,5-a]pyrimidin-3-yl]methanone] it is 25%; for `O=C(c1ccc(F)cc1)c1cnn2c(-c3ccc(C(F)(F)F)cc3)ccnc12` [(4-fluorophenyl)[7-[4-(trifluoromethyl)phenyl]pyrazolo[1,5-a]pyrimidin-3-yl]methanone] it is 50%.
Regarding `Cc1cccc(C(=O)c2cnn3c(-c4ccncc4)ccnc23)c1` [(3-methylphenyl)[7-(4-pyridinyl)pyrazolo[1,5-a]pyrimidin-3-yl]methanone], the responders at 25 mg/kg turned out to be 100%.
The figure for `COc1cc(C(=O)c2cnn3c(-c4ccncc4)ccnc23)cc(OC)c1OC` [[7-(4-pyridinyl)pyrazolo[1,5-a]pyrimidin-3-yl](3,4,5-trimethoxyphenyl)methanone] is 25%.
With `COc1ccccc1C(=O)c1cnn2c(-c3ccc(F)cc3)ccnc12` [[7-(4-fluorophenyl)pyrazolo[1,5-a]pyrimidin-3-yl](2-methoxyphenyl)methanone], the responders at 25 mg/kg was determined as 50%.
Regarding `O=C(c1ccc(C(F)(F)F)cc1)c1cnn2c(-c3ccc(C(F)(F)F)cc3)ccnc12` [[4-(trifluoromethyl)phenyl][7-[4-(trifluoromethyl)phenyl]pyrazolo[1,5-a]pyrimidin-3-yl]methanone], the responders at 25 mg/kg came out at 25%.
The figure for `O=C(c1cc(Cl)ccc1Cl)c1cnn2c(-c3cccnc3)ccnc12` [(2,5-dichlorophenyl)[7-(3-pyridinyl)pyrazolo[1,5-a]pyrimidin-3-yl]methanone] is 25%; for `CCOc1ccc(C(=O)c2cnn3c(-c4cccnc4)ccnc23)cc1` [(4-ethoxyphenyl)[7-(3-pyridinyl)pyrazolo[1,5-a]pyrimidin-3-yl]methanone] it is 25%; for `Cc1cc(-c2cccc(C(F)(F)F)c2)n2ncc(C(=O)c3ccc(F)cc3)c2n1` [(4-fluorophenyl)[5-methyl-7-[3-(trifluoromethyl)phenyl]pyrazolo[1,5-a]pyrimidin-3-yl]methanone] it is 25%.
On to `O=C(c1cc(Cl)ccc1Cl)c1cnn2c(-c3ccncc3)ccnc12` [(2,5-dichlorophenyl)[7-(4-pyridinyl)pyrazolo[1,5-a]pyrimidin-3-yl]methanone], for which the responders at 25 mg/kg stood at 25%.
Take `Cc1nn2c(-c3ccncc3)ccnc2c1C(=O)c1ccccc1` [[2-methyl-7-(4-pyridinyl)pyrazolo[1,5-a]pyrimidin-3-yl]phenylmethanone]: the responders at 25 mg/kg was 25%.
On to `COc1ccccc1C(=O)c1cnn2c(-c3cccnc3)ccnc12` [(2-methoxyphenyl)[7-(3-pyridinyl)pyrazolo[1,5-a]pyrimidin-3-yl]methanone], for which the responders at 25 mg/kg amounted to 75%.
In the case of `O=C(c1cccc(C(F)(F)F)c1)c1cnn2c(-c3ccc(F)cc3)ccnc12` [[7-(4-fluorophenyl)pyrazolo[1,5-a]pyrimidin-3-yl][3-(trifluoromethyl)phenyl]methanone], the responders at 25 mg/kg turned out to be 25%.
Next, `Cc1ccc(C(=O)c2cnn3c(-c4cccnc4)ccnc23)s1` [(5-methyl-2-thienyl)[7-(3-pyridinyl)pyrazolo[1,5-a]pyrimidin-3-yl]methanone]: 25%; `COc1cc(C(=O)c2cnn3c(-c4cccnc4)ccnc23)cc(OC)c1OC` [[7-(3-pyridinyl)pyrazolo[1,5-a]pyrimidin-3-yl](3,4,5-trimethoxyphenyl)methanone]: 25%.
For `O=C(c1cccs1)c1cnn2c(-c3ccc(C(F)(F)F)cc3)ccnc12` [2-thienyl[7-[4-(trifluoromethyl)phenyl]pyrazolo[1,5-a]pyrimidin-3-yl]methanone], the responders at 25 mg/kg worked out at 25%.
With `COc1ccc(C(=O)c2cnn3c(-c4cc(OC)c(OC)c(OC)c4)ccnc23)cc1OC` [(3,4-dimethoxyphenyl)[7-(3,4,5-trimethoxyphenyl)pyrazolo[1,5-a]pyrimidin-3-yl]methanone], the responders at 25 mg/kg stood at 75%.
For the compound `O=C(c1ccc2ccccc2c1)c1cnn2c(-c3cccnc3)ccnc12` [2-naphthalenyl[7-(3-pyridinyl)pyrazolo[1,5-a]pyrimidin-3-yl]methanone], the responders at 25 mg/kg was 25%.
Regarding `O=C(c1ccccc1Cl)c1cnn2c(-c3ccncc3)ccnc12` [(2-chlorophenyl)[7-(4-pyridinyl)pyrazolo[1,5-a]pyrimidin-3-yl]methanone], the responders at 25 mg/kg came to 25%.
The figure for `Cc1ccccc1C(=O)c1cnn2c(-c3ccc(C(F)(F)F)cc3)ccnc12` [(2-methylphenyl)[7-[4-(trifluoromethyl)phenyl]pyrazolo[1,5-a]pyrimidin-3-yl]methanone] is 25%; for `Cc1cnc2c(C(=O)c3ccc(F)cc3)cnn2c1-c1cccnc1` [(4-fluorophenyl)[6-methyl-7-(3-pyridinyl)pyrazolo[1,5-a]pyrimidin-3-yl]methanone] it is 75%; for `O=C(c1ccc2c(c1)OCO2)c1cnn2c(-c3ccncc3)ccnc12` [1,3-benzodioxol-5-yl[7-(4-pyridinyl)pyrazolo[1,5-a]pyrimidin-3-yl]methanone] it is 25%.
Next, `Cc1ccccc1C(=O)c1cnn2c(-c3ccncc3)ccnc12` [(2-methylphenyl)[7-(4-pyridinyl)pyrazolo[1,5-a]pyrimidin-3-yl]methanone]: 25%; `COc1ccc(C(=O)c2cnn3c(-c4ccncc4)ccnc23)cc1OC` [(3,4-dimethoxyphenyl)[7-(4-pyridinyl)pyrazolo[1,5-a]pyrimidin-3-yl]methanone]: 50%; `Cc1cnc2c(C(=O)c3ccccc3)cnn2c1-c1cccc(C(F)(F)F)c1` [[6-methyl-7-[3-(trifluoromethyl)phenyl]pyrazolo[1,5-a]pyrimidin-3-yl]phenylmethanone]: 25%.
As for `COc1ccc(C(=O)c2cnn3c(-c4ccc[n+]([O-])c4)ccnc23)cc1` [(4-Methoxyphenyl)[7-(3-pyridinyl)pyrazolo[1,5-a]pyrimidin-3-yl]methanone, pyridine-1-oxide], the responders at 25 mg/kg worked out at 25%.
On to `O=C(c1cccs1)c1cnn2c(-c3cccc(F)c3)ccnc12` [[7-(3-fluorophenyl)pyrazolo[1,5-a]pyrimidin-3-yl]-2-thienylmethanone], for which the responders at 25 mg/kg turned out to be 25%.
Next, `CN(C)c1ccc(C(=O)c2cnn3c(-c4ccncc4)ccnc23)cc1` [[4-(dimethylamino)phenyl][7-(4-pyridinyl)pyrazolo[1,5-a]pyrimidin-3-yl]methanone]: 75%; `O=C(c1ccncc1)c1cnn2c(-c3ccc(F)cc3)ccnc12` [[7-(4-fluorophenyl)pyrazolo[1,5-a]pyrimidin-3-yl]-4-pyridinylmethanone]: 75%.
Consider `O=C(c1ccccn1)c1cnn2c(-c3ccc(C(F)(F)F)cc3)ccnc12` [2-pyridinyl[7-[4-(trifluoromethyl)phenyl]pyrazolo[1,5-a]pyrimidin-3-yl]methanone], for which the responders at 25 mg/kg was 25%.
`COc1ccc(C(=O)c2cnn3c(-c4ccncc4)ccnc23)cc1` [(4-methoxyphenyl)[7-(4-pyridinyl)pyrazolo[1,5-a]pyrimidin-3-yl]methanone]: the responders at 25 mg/kg was 25%.
`CSc1ccc(-c2ccnc3c(C(=O)c4ccccc4)cnn23)cc1` [[7-[4-(methylthio)phenyl]pyrazolo[1,5-a]pyrimidin-3-yl]phenylmethanone]: the responders at 25 mg/kg is 50%.
Next, `Cc1ccccc1C(=O)c1cnn2c(-c3cccnc3)ccnc12` [(2-methylphenyl)[7-(3-pyridinyl)pyrazolo[1,5-a]pyrimidin-3-yl]methanone]: 25%.
